From patent publication US20260217708A1, “FUSED BENZAZEPINE DERIVATIVES FOR USE IN THE TREATMENT OF CANCER AND EPILEPSY” (UCB BIOPHARMA SRL, priority 2023, published 2026)

How the values were obtained:
system Xc^− [1] = molecular target: T1, system Xc^− (Homo sapiens, UniProt Q9UPY5); experiment: Cystine-induced glutamate release assay; type: cell-based; set-up: endogenous in cells; host or cells: H4 cells; settings: H4 cells, sodium-free HEPES buffer, 50 μM L-Cystine, 2 hours, Amplex Red glutamate readout; read-out: pIC50 Cystine-induced glutamate release assay (converted)
T1 sequence (Q9UPY5 1-501): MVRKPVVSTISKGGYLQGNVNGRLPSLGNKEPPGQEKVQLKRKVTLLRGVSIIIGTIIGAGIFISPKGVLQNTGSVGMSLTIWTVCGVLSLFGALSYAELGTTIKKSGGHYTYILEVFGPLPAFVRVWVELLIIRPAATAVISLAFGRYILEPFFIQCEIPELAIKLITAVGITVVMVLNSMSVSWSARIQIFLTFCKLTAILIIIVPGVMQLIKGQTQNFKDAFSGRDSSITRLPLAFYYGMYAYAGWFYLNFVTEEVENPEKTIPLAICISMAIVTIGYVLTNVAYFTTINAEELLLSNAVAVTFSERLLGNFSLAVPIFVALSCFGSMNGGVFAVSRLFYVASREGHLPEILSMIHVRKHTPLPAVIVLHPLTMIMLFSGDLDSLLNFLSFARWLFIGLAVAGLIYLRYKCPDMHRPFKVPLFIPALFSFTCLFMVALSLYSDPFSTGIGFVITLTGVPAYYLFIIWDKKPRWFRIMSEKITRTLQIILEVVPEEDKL
T1 sequence (P08195 1-529 partner): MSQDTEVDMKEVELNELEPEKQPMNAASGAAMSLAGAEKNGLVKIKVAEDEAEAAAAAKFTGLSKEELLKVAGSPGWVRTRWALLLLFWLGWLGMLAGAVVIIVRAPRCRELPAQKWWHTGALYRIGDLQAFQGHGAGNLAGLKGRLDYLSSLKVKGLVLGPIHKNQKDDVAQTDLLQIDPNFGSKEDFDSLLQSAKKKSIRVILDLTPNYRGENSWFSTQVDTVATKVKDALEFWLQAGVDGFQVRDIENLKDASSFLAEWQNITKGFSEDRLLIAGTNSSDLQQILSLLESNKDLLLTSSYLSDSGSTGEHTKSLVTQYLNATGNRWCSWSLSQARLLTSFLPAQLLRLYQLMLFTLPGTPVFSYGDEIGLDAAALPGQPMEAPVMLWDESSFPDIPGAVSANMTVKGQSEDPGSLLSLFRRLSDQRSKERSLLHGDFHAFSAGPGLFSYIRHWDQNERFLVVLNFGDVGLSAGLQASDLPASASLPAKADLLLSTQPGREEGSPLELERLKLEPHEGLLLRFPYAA
Method in brief: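 H4 cells in sodium-free HEPES buffer (pH 7.4), 2 days after plating; glutamate release induced with 50 μM L-cystine plus compound (1% DMSO), 2 h at 37 °C. Supernatant glutamate measured by Amplex Red fluorescence; IC50/pIC50 derived between 1% DMSO and 50 μM erastin controls.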

system Xc^− [2] = molecular target: T1, system Xc^−; experiment: [^14C]L-Cystine uptake assay; type: cell-based; set-up: endogenous in cells; host or cells: H4 cells; settings: H4 cells, sodium-free HEPES buffer, 0.5 μM L-[14C]Cystine and 4.5 μM L-Cystine, 1 hour at 37° C.; read-out: pIC50 [^14C] L-Cystine uptake assay (converted)
Method in brief: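 H4 cells at 5×10^4 cells/well in sodium-free HEPES buffer were preincubated 15 min with compounds (1% DMSO). Uptake of 0.5 μM [14C]L-cystine plus 4.5 μM unlabelled L-cystine ran 1 hour at 37° C on scintillating plates. IC50 was set between 1% DMSO and 50 μM Erastin controls and expressed as pIC50.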

Row | Compound | IC50 (system Xc^− [1]) [nM] | IC50 (system Xc^− [2]) [nM]
1 | Cc1cc2c(c(F)n1)-c1ccc(F)cc1C(O)C(=O)N2CC(=O)Nc1ccc(C(F)F)cc1 (single isomer, unassigned) [#380, 2-[1,9-difluoro-7-hydroxy-3-methyl-6-oxo-7H-pyrido[4,3-d][3]benzazepin-5-yl]-N-[4-(difluoromethyl)phenyl]acetamide] | < 15.8 | < 15.8
2 | Cc1cc2c(c(F)n1)-c1ccc(F)cc1CC(=O)N2CC(=O)Nc1ccc(C(F)(F)F)cc1 [#86, 2-(1,9-difluoro-3-methyl-6-oxo-7H-pyrido[4,3-d][3]benzazepin-5-yl)-N-[4-(trifluoromethyl)phenyl]acetamide] | 39.8 to 100 | 15.8 to 39.8
3 | Cc1cc2c(c(=O)n1C)-c1ccccc1C(C)C(=O)N2CC(=O)Nc1ccc(C(F)F)cc1 (single isomer, unassigned) [#175, N-[4-(difluoromethyl)phenyl]-2-(2,3,7-trimethyl-1,6-dioxo-7H-pyrido[4,3-d][3]benzazepin-5-yl)acetamide] | < 15.8 | < 15.8
4 | Cc1cc2c(cn1)-c1ccccc1CC(=O)N2CC(=O)Nc1ccc(C(F)(F)F)cc1 [#14, 2-(3-methyl-6-oxo-7H-pyrido[4,3-d][3]benzazepin-5-yl)-N-[4-(trifluoromethyl)-phenyl]acetamide] | 100 to 501 | < 15.8
5 | COc1nc(C)cc2c1-c1cccnc1CC(=O)N2CC(=O)Nc1ccc(C(F)F)cc1 [#83, N-[4-(difluoromethyl)-phenyl]-2-(3-methoxy-5-methyl-9-oxo-4,8,12-triazatricyclo[9.4.0.0^2,7]pentadeca-1(11),2,4,6, 12,14-hexaen-8-yl)acet-amide] | < 15.8 | < 15.8
6 | CC1C(=O)N(CC(=O)Nc2ccc(C(F)F)cc2)c2cc(C#N)ccc2-c2cc(F)cnc21 (single isomer, unassigned) [#308, 2-[9-cyano-2-fluoro-5-methyl-6-oxo-5H-pyrido[2,3-d][1]benzazepin-7-yl]-N-[4-(difluoromethyl)phenyl]acetamide] | < 15.8 | 15.8 to 39.8
7 | Cc1cncc2c1-c1ccccc1CC(=O)N2CC(=O)Nc1ccc(C(F)(F)F)cc1 [#45, 2-(1-methyl-6-oxo-7H-pyrido[3,4-d][3]benzazepin-5-yl)-N-[4-(trifluoromethyl)phenyl]acetamide] | 39.8 to 100 | 100 to 501
8 | CC1C(=O)N(CC(=O)Nc2ccc(C(F)F)cc2)c2cc(N3C[C@H]4C[C@@H](C3)C4(F)F)nc(F)c2-c2cccnc21 (single isomer, unassigned) [#290, 2-[5-(6,6-difluoro-3-azabicyclo[3.1.1]heptan-3-yl)-3-fluoro-10-methyl-9-oxo-4,8,12-triazatricyclo[9.4.0.0^2,7]pentadeca-1(11),2(7),3,5,12,14-hexaen-8-yl]-N-[4-(difluoromethyl)phenyl]acetamide] | 39.8 to 100 | 15.8 to 39.8

Other lines, results leading:

Row | IC50 (system Xc^− [1]) [nM] | IC50 (system Xc^− [2]) [nM] | Compound
9 | < 15.8 | < 15.8 | Cc1cc2c(c(=O)n1C)-c1cccnc1C(C)C(=O)N2CC(=O)Nc1ccc(Cl)c(F)c1 (stereo not shown) [#254, N-(4-chloro-3-fluoro-phenyl)-2-(4,5,10-trimethyl-3,9-dioxo-4,8,12-triazatricyclo[9.4.0.0^2,7]pentadeca-1(15),2(7),5,11,13-pentaen-8-yl)acetamide]
10 | < 15.8 | < 15.8 | CC1C(=O)N(CC(=O)Nc2ccc(C(F)F)cc2)c2cc(N3CC(C)(F)C3)nc(F)c2-c2cccnc21 (single isomer, unassigned) [#288, N-[4-(difluoromethyl)phenyl]-2-[3-fluoro-5-(3-fluoro-3-methyl-azetidin-1-yl)-10-methyl-9-oxo-4,8,12-triazatricyclo[9.4.0.0^2,7]pentadeca-1(15),2,4,6,11,13-hexaen-8-yl]acetamide]
11 | 15.8 to 39.8 | < 15.8 | C[C@H]1C(=O)N(CC(=O)Nc2ccc(C(F)F)cc2)c2cc(N3CC4C(C3)C4(F)F)nc(F)c2-c2cccnc21 (single isomer, unassigned) [#289, 2-[5-(6,6-difluoro-3-azabicyclo[3.1.0]hexan-3-yl)-3-fluoro-10-methyl-9-oxo-4,8,12-triazatricyclo[9.4.0.0^2,7]pentadeca-1(11),2(7),3,5,12,14-hexaen-8-yl]-N-[4-(difluoromethyl)phenyl]acetamide]
12 | 15.8 to 39.8 | < 15.8 | COCCN(C)c1cc2c(c(F)n1)-c1cccnc1C(C)C(=O)N2CC(=O)Nc1ccc(Cl)c(F)c1 (stereo not shown) [#264, N-(4-chloro-3-fluoro-phenyl)-2-[3-fluoro-5-[2-methoxyethyl(methyl)amino]-10-methyl-9-oxo-4,8,12-triazatricyclo[9.4.0.0^2,7]pentadeca-1(15),2(7),3,5,11,13-hexaen-8-yl]acetamide]
13 | 15.8 to 39.8 | 15.8 to 39.8 | CC1C(=O)N(CC(=O)Nc2ccc(Cl)c(F)c2)c2cc(C3CN(CC(F)F)C3)cc(F)c2-c2cccnc21 (stereo not shown) [#345, N-(4-chloro-3-fluoro-phenyl)-2-[9-[1-(2,2-difluoroethyl)azetidin-3-yl]-11-fluoro-5-methyl-6-oxo-5H-pyrido[2,3-d][1]benzazepin-7-yl]acetamide]
14 | 15.8 to 39.8 | < 15.8 | CC1C(=O)N(CC(=O)Nc2ccc(Cl)c(F)c2)c2cc(Cl)cc(F)c2-c2cncnc21 (single isomer, unassigned) [#314, 2-[9-chloro-11-fluoro-5-methyl-6-oxo-5H-pyrimido[4,5-d][1]benzazepin-7-yl]-N-(4-chloro-3-fluoro-phenyl)acetamide]
15 | 39.8 to 100 | 39.8 to 100 | CC1C(=O)N(CC(=O)Nc2ccc(Cl)c(F)c2)c2cc(C(F)(F)F)nc(O)c2-c2ccccc21 (single isomer, unassigned) [#397, N-(4-chloro-3-fluoro-phenyl)-2-[1-hydroxy-7-methyl-6-oxo-3-(trifluoromethyl)-7H-pyrido[3,4-a][3]benzazepin-5-yl]acetamide]
16 | 15.8 to 39.8 | 15.8 to 39.8 | Cc1cc2c(c(F)n1)-c1cccnc1C(O)C(=O)N2CC(=O)Nc1ccc(Br)c(Cl)c1 (single isomer, unassigned) [#213, Enantiomer (10S) or (10R) of N-(4-bromo-3-chloro-phenyl)-2-[(10S)-3-fluoro-10-hydroxy-5-methyl-9-oxo-4,8,12-triazatricyclo[9.4.0.0^2,7]pentadeca-1(11),2(7),3,5,12,14-hexaen-8-yl]acetamide]
17 | 39.8 to 100 | 15.8 to 39.8 | CC1C(=O)N(CC(=O)Nc2ccc(Cl)c(F)c2)c2cc(Cl)cc(F)c2-c2nccnc21 (single isomer, unassigned) [#414, 2-[9-chloro-11-fluoro-5-methyl-6-oxo-5H-pyrazino[2,3-d][1]benzazepin-7-yl]-N-(4-chloro-3-fluoro-phenyl)acetamide]
18 | 15.8 to 39.8 | 39.8 to 100 | CC1C(=O)N(CC(=O)Nc2ccc(C(F)F)cc2)c2cc(OC3CN(C)C3)nc(F)c2-c2cccnc21 (stereo not shown) [#378, N-[4-(difluoromethyl)phenyl]-2-[3-fluoro-10-methyl-5-(1-methylazetidin-3-yl)oxy-9-oxo-4,8,12-triazatricyclo[9.4.0.0^2,7]pentadeca-1(15),2,4,6,11,13-hexaen-8-yl]acetamide]
19 | < 15.8 | < 15.8 | Cc1cc2c(c(F)n1)-c1cnccc1C(C)C(=O)N2CC(=O)Nc1ccc(C(F)F)cc1 (single isomer, unassigned) [#259, N-[4-(difluoromethyl)phenyl]-2-[3-fluoro-5,10-dimethyl-9-oxo-4,8,14-triazatricyclo[9.4.0.0^2,7]pentadeca-1(15),2,4,6,11,13-hexaen-8-yl]acetamide]
20 | 15.8 to 39.8 | < 15.8 | Cc1cc2c(c(F)n1)-c1cc(F)ccc1C(C)C(=O)N2CC(=O)Nc1ccc(Cl)c(F)c1 (single isomer, unassigned) [#405, N-(4-chloro-3-fluoro-phenyl)-2-[1,10-difluoro-3,7-dimethyl-6-oxo-7H-pyrido[3,4-a][3]benzazepin-5-yl]acetamide]
